Assay results: the Kinase Knowledgebase extract (Sharma et al. 2016)

Target: PIK3CB (Human) (UniProt P42338)
Assay: Enzyme Assay
Conditions: not given

Sequence of PIK3CB (Human) (P42338 whole entry, looked up): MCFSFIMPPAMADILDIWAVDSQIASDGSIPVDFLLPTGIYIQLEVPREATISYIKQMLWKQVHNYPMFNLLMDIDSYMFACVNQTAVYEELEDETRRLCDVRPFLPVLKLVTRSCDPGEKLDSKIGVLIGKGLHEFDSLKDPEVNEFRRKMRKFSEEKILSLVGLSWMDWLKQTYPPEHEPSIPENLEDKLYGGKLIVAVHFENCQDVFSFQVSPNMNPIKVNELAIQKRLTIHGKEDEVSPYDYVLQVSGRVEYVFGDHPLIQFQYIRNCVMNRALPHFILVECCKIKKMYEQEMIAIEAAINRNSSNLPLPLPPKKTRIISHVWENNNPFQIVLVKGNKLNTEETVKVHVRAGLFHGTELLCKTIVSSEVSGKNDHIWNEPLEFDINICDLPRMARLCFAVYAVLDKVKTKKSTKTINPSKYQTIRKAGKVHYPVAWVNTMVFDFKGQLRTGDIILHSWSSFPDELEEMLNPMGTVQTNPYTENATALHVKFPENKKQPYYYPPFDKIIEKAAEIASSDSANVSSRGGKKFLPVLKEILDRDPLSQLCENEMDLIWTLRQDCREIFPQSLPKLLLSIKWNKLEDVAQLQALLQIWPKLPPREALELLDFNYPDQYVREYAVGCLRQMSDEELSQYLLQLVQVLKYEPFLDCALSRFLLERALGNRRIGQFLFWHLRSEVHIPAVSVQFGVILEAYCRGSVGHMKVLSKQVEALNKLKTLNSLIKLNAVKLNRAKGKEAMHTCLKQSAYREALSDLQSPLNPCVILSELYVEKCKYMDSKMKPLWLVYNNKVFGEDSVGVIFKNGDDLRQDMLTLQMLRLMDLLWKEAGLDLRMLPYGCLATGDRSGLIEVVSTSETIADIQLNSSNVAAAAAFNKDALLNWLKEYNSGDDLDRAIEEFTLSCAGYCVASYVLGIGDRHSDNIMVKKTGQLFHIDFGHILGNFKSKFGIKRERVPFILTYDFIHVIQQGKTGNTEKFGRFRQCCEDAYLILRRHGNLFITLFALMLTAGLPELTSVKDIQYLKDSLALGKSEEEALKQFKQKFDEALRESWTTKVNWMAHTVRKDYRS

| IC50 | SMILES |
| --- | --- |
| 63.1 nM | Cc1c(Cc2c(O)nn3c(O)cc(C4CCOCC4)nc23)cccc1C(F)(F)F |
| 0.631 nM | CC1=NC(=O)C2SC(N3CCOCC3)=NC2N1Cc1cccc(C(F)(F)F)c1C (configuration not stated) |

Target: PIK3CB (Human) (UniProt P42338)
Assay: Cell-Based Assay
Conditions: mda-mb-468

| SMILES | EC50 |
| --- | --- |
| Cc1nn2c(C(=O)O)cc(N3CCOCC3)nc2c1Cc1cccc(C(F)(F)F)c1C | 3.16 µM |
| Cc1nn2c(C(N)=O)cc(N3CCOCC3)nc2c1Cc1cccc(C(F)(F)F)c1C | 2 µM |
| Cc1c(Cc2cnn3c(O)cc(N4CCOCC4)nc23)cccc1C(F)(F)F | 3.16 µM |
| Cc1nn2c(NC(N)=O)cc(N3CCOCC3)nc2c1Cc1cccc(C(F)(F)F)c1C | 1.26 µM |

Next, values leading:

| EC50 | SMILES |
| --- | --- |
| 10 µM | Nc1nn2c(O)cc(C3CCOCC3)nc2c1Cc1cccc(Cl)c1Cl |
| 15.8 µM | Cc1c(Cc2cnn3c(O)cc(-c4ccncc4)nc23)cccc1C(F)(F)F |
| 5.01 µM | Cc1nn2c(O)cc(N3CCOCC3)nc2c1Cc1cccc(C(F)(F)F)c1C |
| 3.98 µM | Cc1nn2c(O)cc(N3CCOCC3)nc2c1Cc1cccc2ccccc12 |
| 25.1 µM | COc1nn2c(O)cc(-c3ccncc3)nc2c1Cc1cccc(Cl)c1Cl |
| 15.8 µM | Cc1nn2c(O)cc(C3CCOCC3)nc2c1Cc1cccc(C(F)(F)F)c1C |
